In patent US4349546A, “D-Allose derivative and preparation method therefor” (Wakamoto Pharmaceutical Co., Ltd., priority 1980, dated 1982):

Experiments:
[1] = system: early stage encephalophyma, melanoma, lymphoma; conditions: background statement; cited from earlier work
[2] = system: Peripheral leukocyte count; assay: Effects on peripheral leukocyte count (Test Example 6); type: in vivo, DDY mice
Source text: Comparison of effects of CNUA and Me-CCNU* on peripheral leukocyte count:
Six-week old DDY mice each weighing 22±1 g; one group comprising 5 male mice.
CNUA and Me-CCNU were given intraperitoneally on the first day. The, blood was drawn from a tail vein at time intervals to determine the leukocyte count. The samples were used in the form of a solution in an isotonic sodium chloride solution.

tumor = conditions: background statement; cited from earlier work

C[C@H]1CC[C@H](NC(=O)N(CCCl)N=O)CC1 [Me-CCNU, 1-(2-chloroethyl)-3-(trans-4-methylcyclohexyl)-1-nitrosourea, reference compound]
effectiveness against tumors [1]: effective against early stage encephalophyma, melanoma, lymphoma | Peripheral leukocyte count after the administration ([2]; 20 mg/kg ip, 2 day): 55.0 % based on the control | Peripheral leukocyte count after the administration ([2]; 20 mg/kg ip, 4 day): 53.3 % based on the control | Peripheral leukocyte count after the administration ([2]; 20 mg/kg ip, 7 day): 50.2 % based on the control | Peripheral leukocyte count after the administration ([2]; 20 mg/kg ip, 10 day): 59.5 % based on the control | Peripheral leukocyte count after the administration ([2]; 20 mg/kg ip, 14 day): 145 % based on the control | Peripheral leukocyte count after the administration ([2]; 40 mg/kg ip, 2 day): 56.0 % based on the control | Peripheral leukocyte count after the administration ([2]; 40 mg/kg ip, 4 day): 36.5 % based on the control | Peripheral leukocyte count after the administration ([2]; 40 mg/kg ip, 7 day): 34.0 % based on the control | Peripheral leukocyte count after the administration ([2]; 40 mg/kg ip, 10 day): 40.7 % based on the control | Peripheral leukocyte count after the administration ([2]; 40 mg/kg ip, 14 day): 78.1 % based on the control

O=NN(CCCl)C(=O)N[C@H]1C(O)O[C@H](CO)[C@@H](O)[C@@H]1O (stereo partly drawn) [chlorozotocin]
antitumor effects (tumor): exhibit antitumor effects

O=NN(CCCl)C(=O)NCCCl [BCNU, 1,3-bis-(2-chloroethyl)-1-nitrosourea]
effectiveness against tumors [1]: effective against early stage encephalophyma, melanoma, lymphoma

O=NN(CCCl)C(=O)NC1CCCCC1 [CCNU, 1-(2-chloroethyl)-3-cyclohexyl-1-nitrosourea]
effectiveness against tumors [1]: effective against early stage encephalophyma, melanoma, lymphoma

CN(N=O)C(=O)N[C@H]1C(O)O[C@H](CO)[C@@H](O)[C@@H]1O (stereo partly drawn) [streptozotocin]
antitumor effects (tumor): exhibit antitumor effects
